Source: PubChem BioAssay AID328 (DTP/NCI, 2004)
Several values for one entry are separate records, joined by “and”; a condition that tells them apart may be missing. Identical values can stand only once. Inconclusive results and toxic doses are left out. The calls were made as follows: active = survival T/C of 150% or more; inactive = T/C below 125% in these data.

System: BDF1 mice, P388 leukemia ip, median survival T/C
Assay: NCI In Vivo Anticancer Drug Screen. Data for tumor model P388 Leukemia (intraperitoneal) in B6D2F1 (BDF1) mice
Conditions: endpoint: median survival time, higher = longer survival
How it was run: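 Vehicle-dosed animals serve as the reference; survival of compound-dosed, tumour-implanted mice is divided by it.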

Measured: T/C

COC(=O)C[C@](O)(CCCC(C)(C)O)C(=O)O[C@@H]1C(OC)=C[C@]23CCCN2CCc2cc4c(cc2[C@H]13)OCO4
240 % of control and 100 % of control: dose: 0.5 mg/kg/injection, schedule: Q01DX009 (ip), vehicle: saline
245 % of control and 100 % of control: dose: 1.0 mg/kg/injection, schedule: Q01DX009 (ip), vehicle: saline
inactive: dose: 0.5 mg/kg/injection, schedule: Q01DX006 (iv), vehicle: acid diluted with saline 115 % of control | dose: 0.5 mg/kg/injection, schedule: Q01DX009 (oral), vehicle: acid diluted with saline 115 % of control | dose: 0.5 mg/kg/injection, schedule: Q01DX009 (sc), vehicle: saline 105 % of control | dose: 1.0 mg/kg/injection, schedule: Q01DX009 (oral), vehicle: acid diluted with saline 115 % of control | dose: 1.0 mg/kg/injection, schedule: Q01DX010 (ip), vehicle: saline 120 % of control | dose: 1.0 mg/kg/injection, schedule: Q03HX016 (ip), vehicle: acid diluted with saline 100 % of control | dose: 2.0 mg/kg/injection, schedule: Q01DX001 (ip), vehicle: acid diluted with saline 120 % of control | dose: 2.0 mg/kg/injection, schedule: Q01DX001 (iv), vehicle: acid diluted with saline 110 % of control | dose: 2.0 mg/kg/injection, schedule: Q01DX001 (oral), vehicle: acid diluted with saline 110 % of control | dose: 2.0 mg/kg/injection, schedule: Q01DX001 (sc), vehicle: acid diluted with saline 110 % of control | dose: 2.0 mg/kg/injection, schedule: Q01DX009 (ip), vehicle: water 88 % of control | dose: 3.33 mg/kg/injection, schedule: Q04DX003 (ip), vehicle: acid diluted with saline 112 % of control | dose: 4.0 mg/kg/injection, schedule: Q01DX001 (ip), vehicle: acid diluted with saline 115 % of control | dose: 4.0 mg/kg/injection, schedule: Q01DX001 (iv), vehicle: acid diluted with saline 110 % of control | dose: 4.0 mg/kg/injection, schedule: Q01DX001 (oral), vehicle: acid diluted with saline 110 % of control | dose: 4.0 mg/kg/injection, schedule: Q01DX001 (sc), vehicle: acid diluted with saline 120 % of control | dose: 4.0 mg/kg/injection, schedule: Q01DX006 (iv), vehicle: acid diluted with saline 120 % of control | dose: 4.0 mg/kg/injection, schedule: Q01DX009 (ip), vehicle: saline 100 % of control | dose: 4.0 mg/kg/injection, schedule: Q01DX009 (sc), vehicle: saline 115 % of control | dose: 4.0 mg/kg/injection, schedule: Q04DX003 (ip), vehicle: acid diluted with saline 110 % of control | dose: 8.0 mg/kg/injection, schedule: Q01DX009 (ip), vehicle: saline 104 % of control
active: dose: 0.06 mg/kg/injection, schedule: Q01DX010 (ip), vehicle: saline 154 % of control | dose: 0.13 mg/kg/injection, schedule: Q01DX010 (ip), vehicle: saline 172 % of control | dose: 0.25 mg/kg/injection, schedule: Q01DX009 (ip), vehicle: acid diluted with saline 180 % of control | dose: 0.25 mg/kg/injection, schedule: Q01DX009 (ip), vehicle: water 233 % of control and 244 % of control | dose: 0.25 mg/kg/injection, schedule: Q01DX010 (ip), vehicle: saline 181 % of control | dose: 0.25 mg/kg/injection, schedule: Q03HX016 (ip), vehicle: acid diluted with saline 160 % of control | dose: 0.5 mg/kg/injection, schedule: Q01DX009 (ip), vehicle: acid diluted with saline 190 % of control | dose: 0.5 mg/kg/injection, schedule: Q01DX009 (ip), vehicle: water 272 % of control and 300 % of control | dose: 0.5 mg/kg/injection, schedule: Q01DX009 (oral), vehicle: saline 155 % of control | dose: 0.5 mg/kg/injection, schedule: Q01DX010 (ip), vehicle: saline 245 % of control and 215 % of control | dose: 0.5 mg/kg/injection, schedule: Q03HX016 (ip), vehicle: acid diluted with saline 180 % of control | dose: 1.0 mg/kg/injection, schedule: Q01DX006 (iv), vehicle: acid diluted with saline 160 % of control | dose: 1.0 mg/kg/injection, schedule: Q01DX009 (ip), vehicle: acid diluted with saline 225 % of control and 218 % of control | dose: 1.0 mg/kg/injection, schedule: Q01DX009 (ip), vehicle: water 327 % of control and 338 % of control | dose: 1.0 mg/kg/injection, schedule: Q01DX009 (oral), vehicle: saline 240 % of control | dose: 1.0 mg/kg/injection, schedule: Q01DX009 (sc), vehicle: acid diluted with saline 170 % of control | dose: 1.0 mg/kg/injection, schedule: Q03HX008 (ip), vehicle: acid diluted with saline 150 % of control | dose: 2.0 mg/kg/injection, schedule: Q01DX006 (iv), vehicle: acid diluted with saline 200 % of control | dose: 2.0 mg/kg/injection, schedule: Q01DX009 (ip), vehicle: acid diluted with saline 240 % of control and 254 % of control | dose: 2.0 mg/kg/injection, schedule: Q01DX009 (sc), vehicle: acid diluted with saline 235 % of control | dose: 2.0 mg/kg/injection, schedule: Q01DX009 (sc), vehicle: saline 205 % of control | dose: 2.0 mg/kg/injection, schedule: Q04DX003 (ip), vehicle: acid diluted with saline 155 % of control and 168 % of control and 170 % of control | dose: 2.0 mg/kg/injection, schedule: Q04DX003 (ip), vehicle: saline 173 % of control | dose: 4.0 mg/kg/injection, schedule: Q01DX009 (ip), vehicle: acid diluted with saline 190 % of control | dose: 62.5 micrograms/kg/injection, schedule: Q01DX009 (ip), vehicle: saline 154 % of control | dose: 125.0 micrograms/kg/injection, schedule: Q01DX009 (ip), vehicle: saline 154 % of control | dose: 125.0 micrograms/kg/injection, schedule: Q03HX024 (ip), vehicle: acid diluted with saline 170 % of control | dose: 250.0 micrograms/kg/injection, schedule: Q01DX009 (ip), vehicle: saline 163 % of control | dose: 250.0 micrograms/kg/injection, schedule: Q03HX024 (ip), vehicle: acid diluted with saline 190 % of control | dose: 500.0 micrograms/kg/injection, schedule: Q01DX009 (ip), vehicle: saline 190 % of control | dose: 500.0 micrograms/kg/injection, schedule: Q03HX024 (ip), vehicle: acid diluted with saline 215 % of control | dose: 1000.0 micrograms/kg/injection, schedule: Q01DX009 (ip), vehicle: saline 213 % of control
